Results taken from ChEMBL document CHEMBL1138749, “N-Phenyl-4-pyrazolo[1,5-b]pyridazin-3-ylpyrimidin-2-amines as potent and selective inhibitors of glycogen synthase kinase 3 with good cellular efficacy” (J Med Chem, 2004).

Key:
[1] = biological target: Glycogen synthase kinase-3 beta (Homo sapiens, UniProt P49841)
Description: Binding affinity for human glycogen synthase kinase 3 beta

[2] = biological target: Cyclin-dependent kinase 2 (Homo sapiens, UniProt P24941)
[3] = biological target: Glycogen synthase kinase-3 beta (Rattus norvegicus, UniProt P18266); test: Effective concentration to increase glycogen deposition in rat skeletal muscle L6 myoblast cells; type: functional, cell-based
Glycogen synthase kinase-3 beta (Rattus norvegicus, UniProt P18266), sequence (P18266 whole entry): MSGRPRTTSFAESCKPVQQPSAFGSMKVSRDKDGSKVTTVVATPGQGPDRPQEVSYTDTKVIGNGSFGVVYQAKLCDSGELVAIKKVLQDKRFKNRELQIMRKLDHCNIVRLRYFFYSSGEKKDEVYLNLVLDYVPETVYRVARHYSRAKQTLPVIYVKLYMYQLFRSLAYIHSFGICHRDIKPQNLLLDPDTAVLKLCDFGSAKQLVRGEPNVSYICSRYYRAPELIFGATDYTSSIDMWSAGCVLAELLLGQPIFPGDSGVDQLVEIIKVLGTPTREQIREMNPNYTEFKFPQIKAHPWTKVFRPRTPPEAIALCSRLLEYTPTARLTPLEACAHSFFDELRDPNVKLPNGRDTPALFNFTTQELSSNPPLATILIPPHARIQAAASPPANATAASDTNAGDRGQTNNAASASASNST

Glycogen synthase kinase-3 beta (Homo sapiens, UniProt P49841), sequence (P49841 whole entry): as the sequence (P18266 whole entry) above, with M240V, P390T, A392T, T400A, A402T counted along it

Compound	IC50 [1] [nM]	IC50 [2] [nM]	EC50 [3] [nM]
COCCOc1cnn2ncc(-c3ccnc(Nc4cccc(OC)c4)n3)c2c1	80	> 20000	
Cc1ccc2c(-c3ccnc(Nc4ccc(F)c(F)c4)n3)c(-c3ccc(F)cc3)nn2n1	10	> 20000	
Cc1ccc2c(-c3ccnc(Nc4cccc(C(F)(F)F)c4)n3)c(-c3ccc(F)cc3)nn2n1	20	> 20000	6800
Cc1ccc2c(-c3ccnc(Nc4ccc5c(c4)OCCO5)n3)c(-c3ccc(F)cc3)nn2n1	10	> 20000	
Fc1cc(F)cc(Nc2nccc(-c3cnn4ncccc34)n2)c1		1	1000
Fc1ccc(Nc2nccc(-c3c(-c4cccc(C(F)(F)F)c4)nn4ncccc34)n2)cc1F	310	> 20000	
Cc1ccc2c(-c3ccnc(Nc4ccc(Cl)c(C(F)(F)F)c4)n3)c(-c3cccc(C(F)(F)F)c3)nn2n1		> 20000	
Fc1ccc(Nc2nccc(-c3c(C4CCCCC4)nn4ncccc34)n2)cc1F	> 20000	> 20000	
CCC(C)c1ccc(Nc2nccc(-c3cnn4ncccc34)n2)cc1 (stereo unspecified)	120	150	
FC(F)(F)c1cccc(-c2nn3ncccc3c2-c2ccnc(Nc3ccccc3)n2)c1	150	> 20000	
Cc1ccc2c(-c3ccnc(Nc4ccc(Cl)c(C(F)(F)F)c4)n3)c(-c3ccccc3)nn2n1	100	> 20000	
Cc1cc(C)cc(Nc2nccc(-c3cnn4ncccc34)n2)c1			1800
COc1ccc(-c2nn3ncccc3c2-c2ccnc(Nc3ccccc3)n2)cc1		> 20000	
Fc1ccc(-c2nn3ncccc3c2-c2ccnc(Nc3ccc(F)c(F)c3)n2)cc1		> 20000	
Cc1ccc2c(-c3ccnc(Nc4ccc(F)c(F)c4)n3)c(-c3cccc(C(F)(F)F)c3)nn2n1		> 20000	
COc1ccc2c(-c3ccnc(Nc4ccc([N+](=O)[O-])cc4)n3)cnn2n1	70	20	
Fc1ccc(-c2nn3ncccc3c2-c2ccnc(Nc3ccccc3)n2)cc1	20	> 20000	
Fc1cc(F)cc(Nc2nccc(-c3c(-c4ccccc4)nn4ncccc34)n2)c1	10	> 20000	
c1ccc(-c2ccc3c(-c4ccnc(Nc5ccc6c(c5)OCCO6)n4)cnn3n2)cc1	120	> 20000	
COc1cc(Nc2nccc(-c3cnn4nc(C)ccc34)n2)cc(C(F)(F)F)c1	10	20	
c1cnn2ncc(-c3ccnc(Nc4ccc5c(c4)OCCCO5)n3)c2c1		6	

Compound	IC50 [1] [nM]	IC50 [2] [nM]	EC50 [3] [nM]
Clc1ccc(-c2nn3ncccc3c2-c2ccnc(Nc3ccc4c(c3)OCCO4)n2)cc1	790	> 20000	
Clc1ccc(Nc2nccc(-c3cnn4ncccc34)n2)cc1Cl	10	1	
Cc1ccc2c(-c3ccnc(Nc4cccc(C(F)(F)F)c4)n3)cnn2n1	< 10	50	
FC(F)(F)c1cccc(-c2nn3ncccc3c2-c2ccnc(Nc3ccc(Cl)c(C(F)(F)F)c3)n2)c1	1000	> 20000	
COc1cc(Nc2nccc(-c3cnn4nc(OC)ccc34)n2)cc(C(F)(F)F)c1	190	790	
Cc1ccc2c(-c3ccnc(Nc4ccccc4)n3)c(-c3ccc(C(F)(F)F)cc3)nn2n1	> 31600	> 20000	
CCCOc1ccc2c(-c3ccnc(Nc4cccc(C(F)(F)F)c4)n3)cnn2n1	790	1260	
Oc1ccc2c(-c3ccnc(Nc4cccc(C(F)(F)F)c4)n3)cnn2n1	10	8	
COc1ccc2c(-c3ccnc(Nc4cc(C(F)(F)F)cc(C(F)(F)F)c4)n3)cnn2n1		> 20000	
Cc1ccc2c(-c3ccnc(Nc4ccc(C(F)(F)F)cc4)n3)cnn2n1	50	190	
COc1cccc(Nc2nccc(-c3cnn4nc(OC)ccc34)n2)c1	100	60	
COc1cc(Nc2nccc(-c3cnn4nc(OC)ccc34)n2)cc(OC)c1	120	190	
FC(F)(F)c1cc(Nc2nccc(-c3cnn4ncccc34)n2)ccc1Cl		10	1000
COc1ccc2c(-c3ccnc(Nc4ccc5c(c4)OCCO5)n3)cnn2n1	30	100	
O=[N+]([O-])c1ccc(Nc2nccc(-c3cnn4ncccc34)n2)cc1		20	
FC(F)(F)c1ccc(-c2nn3ncccc3c2-c2ccnc(Nc3ccc(Cl)c(C(F)(F)F)c3)n2)cc1	> 31600	> 20000	
COc1ccc2c(-c3ccnc(Nc4cccc(C(F)(F)F)c4)n3)cnn2n1	50	160	
Fc1ccc(-c2nn3ncccc3c2-c2ccnc(Nc3ccc(Cl)c(C(F)(F)F)c3)n2)cc1	40	> 20000	
Fc1ccc(-c2nn3ncccc3c2-c2ccnc(Nc3cccc(C(F)(F)F)c3)n2)cc1	20	> 20000	2800
COc1ccc2c(-c3ccnc(Nc4ccc(C#N)cc4)n3)cnn2n1	50	500	
c1cnn2ncc(-c3ccnc(Nc4ccc5c(c4)OCO5)n3)c2c1		10	

Compound	IC50 [1] [nM]	IC50 [2] [nM]	EC50 [3] [nM]
Cc1ccc2c(-c3ccnc(Nc4ccc5c(c4)OCCO5)n3)c(-c3cccc(C(F)(F)F)c3)nn2n1	150	5000	
FC(F)(F)c1cc(Nc2nccc(-c3c(-c4ccc(Cl)cc4)nn4ncccc34)n2)ccc1Cl		> 20000	
FC(F)(F)c1cccc(Nc2nccc(-c3c(-c4ccccc4)nn4ncccc34)n2)c1	10	> 20000	2100
c1ccc(Nc2nccc(-c3c(C4CCCCC4)nn4ncccc34)n2)cc1	> 20000	> 20000	
c1ccc(Nc2nccc(-c3cnn4ncccc34)n2)cc1			2900
N#Cc1ccc(Nc2nccc(-c3cnn4ncccc34)n2)cc1		1	
COc1cc(Nc2nccc(-c3cnn4ncccc34)n2)cc(C(F)(F)F)c1		10	1200
c1ccc(Nc2nccc(-c3c(-c4ccccc4)nn4ncccc34)n2)cc1	10	3980	1600
Cc1ccc2c(-c3ccnc(Nc4ccc(Cl)c(C(F)(F)F)c4)n3)c(-c3ccc(F)cc3)nn2n1	50	> 20000	
Clc1cc(Cl)cc(Nc2nccc(-c3cnn4ncccc34)n2)c1		310	1000
Cc1ccc2c(-c3ccnc(Nc4ccc5c(c4)OCCO5)n3)c(-c3ccccc3)nn2n1	30	> 20000	
FC(F)(F)c1cccc(Nc2nccc(-c3c(-c4ccc(Cl)cc4)nn4ncccc34)n2)c1		> 20000	
c1ccc(Nc2nccc(-c3c(C4CC4)nn4ncccc34)n2)cc1		3980	
c1ccc(-c2nn3ncccc3c2-c2ccnc(Nc3ccc4c(c3)OCCO4)n2)cc1		> 20000	
Cc1ccc2c(-c3ccnc(Nc4ccc(F)c(F)c4)n3)c(-c3ccccc3)nn2n1	30	> 20000	3400
Cc1ccc2c(-c3ccnc(Nc4ccccc4)n3)c(-c3cccc(C(F)(F)F)c3)nn2n1	790	> 20000	
Fc1ccc(Nc2nccc(-c3c(-c4ccc(Cl)cc4)nn4ncccc34)n2)cc1F	1000	> 20000	
FC(F)(F)c1cc(Br)cc(Nc2nccc(-c3cnn4ncccc34)n2)c1		10	
FC(F)(F)c1cc(Nc2nccc(-c3c(-c4ccccc4)nn4ncccc34)n2)ccc1Cl	20	> 20000	
FC(F)(F)c1ccc(-c2nn3ncccc3c2-c2ccnc(Nc3cccc(C(F)(F)F)c3)n2)cc1	> 31600	> 20000	
Cc1ccc2c(-c3ccnc(Nc4ccccc4)n3)c(-c3ccccc3)nn2n1	50		3600

Compound	IC50 [1] [nM]	IC50 [2] [nM]	EC50 [3] [nM]
Cc1ccc2c(-c3ccnc(Nc4ccc5c(c4)OCCO5)n3)cnn2n1	10	6	
Fc1ccc(Nc2nccc(-c3c(-c4ccccc4)nn4ncccc34)n2)cc1F	10	> 20000	4200
CC(C)c1ccc(Nc2nccc(-c3cnn4ncccc34)n2)cc1 [GW805758X]	30	10	
c1cnn2ncc(-c3ccnc(Nc4ccc5c(c4)OCCO5)n3)c2c1 [GW806290X]			800
CCOc1ccc2c(-c3ccnc(Nc4cc(OC)cc(C(F)(F)F)c4)n3)cnn2n1 [GW807982X]	3160	> 20000	
CCOc1ccc2c(-c3ccnc(Nc4cccc(C(F)(F)F)c4)n3)cnn2n1 [GW811761X]	190	1990	
FC(F)(F)c1cccc(Nc2nccc(-c3cnn4nc(-c5ccccc5)ccc34)n2)c1 [GW819077X]		2500	
Fc1ccc(-c2nn3ncccc3c2-c2ccnc(Nc3ccc4c(c3)OCCO4)n2)cc1 [GW827099X]	10	> 20000	
COc1ccc(-c2nn3ncccc3c2-c2ccnc(Nc3cccc(C(F)(F)F)c3)n2)cc1 [GW827105X]		> 20000	
COc1ccc(-c2nn3ncccc3c2-c2ccnc(Nc3ccc(F)c(F)c3)n2)cc1 [GW827396X]		> 20000	
FC(F)(F)c1ccc(-c2nn3ncccc3c2-c2ccnc(Nc3ccc4c(c3)OCCO4)n2)cc1 [GW828525X]	> 31600	> 20000	
Fc1ccc(Nc2nccc(-c3c(-c4ccc(C(F)(F)F)cc4)nn4ncccc34)n2)cc1F [GW828529X]	> 31600	> 20000	
Clc1ccc(-c2nn3ncccc3c2-c2ccnc(Nc3ccccc3)n2)cc1 [GW829055X]		> 20000	
COc1ccc(-c2nn3ncccc3c2-c2ccnc(Nc3ccc(Cl)c(C(F)(F)F)c3)n2)cc1 [GW829115X]		> 20000	
Cc1ccc2c(-c3ccnc(Nc4ccc5c(c4)OCCO5)n3)c(-c3ccc(C(F)(F)F)cc3)nn2n1 [GW832467X]	> 31600	> 20000	
Cc1ccc2c(-c3ccnc(Nc4ccccc4)n3)c(-c3ccc(F)cc3)nn2n1 [GW833373X]	20	> 20000	
COc1cccc(Nc2nccc(-c3cnn4ncccc34)n2)c1 [PYRAZOLOPYRIDAZINE 1]			1300
COc1ccc(Nc2nccc(-c3cnn4ncccc34)n2)cc1OC [PYRAZOLOPYRIDAZINE 2]	10	50	1500
